Numbers after ± are expanded uncertainties.

The series can be described thus: refractive index (Na D-line) (dimensionless). Particulars: 294.15 K; 100 kPa; Liquid; Standard Abbe refractometry.
`CCCO` [propan-1-ol]: the refractive index was 1.3846 ± 0.00042.

With `CCCCO` [butan-1-ol], the refractive index worked out at 1.39782 ± 0.00042.

`O` [water]: the refractive index came out at 1.33285 ± 0.00042.

For orientation: refractive index means a measure of how strongly the sample bends light.

The record behind these values is the NIST ThermoML archive (doi:10.1021/acs.jced.5b01024).
